Reference: PMC10447463, “Data-mining unveils structure–property–activity correlation of viral infectivity enhancing self-assembling peptides” (Nature Communications, 2023)

Key:
[1] = system: HIV-1 infection of TZM-bl cells; experiment: HIV-1 infectivity enhancement assay, β-galactosidase luminescence; format: cell-based
[2] = Turbidity, derived count rate of scattered light; format: physicochemical; details: for Count Rate / kcps: derived count rate of scattered light at 633 nm, 173°, from zeta-potential measurement, 0.1 mg/mL in 1 mM KCl after 1 d at 1 mg/mL in PBS, turbidity / microscopic aggregation, mean of triplicate; for Log Count Rate: log of derived count rate; for Count Rate: turbidity
Summary of the method: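 One-day room-temperature aggregation at 1 mg/mL in PBS (pH 7.4) preceded measurement; samples then went into 1 mM KCl. Triplicates per sample, two independent experiments averaged.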

[3] = Feb2021; figures match the 1.3 µM column
[4] = Feb2021; infectivity relative to virus only
[5] = Feb2021; log10 of infectivity relative to EF-C
[6] = Feb2021; n-fold infectivity relative to EF-C
[7] = Feb2021 run; infectivity n-fold relative to virus alone
[8] = Feb2021 run; log10 of infectivity relative to EF-C
[9] = Feb2021 run; n-fold infectivity relative to EF-C
[10] = infectivity class (low / medium / high) of each library peptide; main list in c1-c6, same classes repeated in sub-lists of sequences containing the hydrophobicity/charge patterns P+,H0,P+,H0,P0,H0,P0; P+,H0,P0,H0,P0,H0,P0; P+,H0,P0,H0
[11] = infectivity enhancement relative to EF-C (=1); Feb2021 run
[12] = infectivity n-fold relative to virus only; Feb2021 run
[13] = log10 of HIV-1 infection of TZM-bl cells relative to EF-C; Fig S15 source data; asymmetric std dev errors
[14] = log10 of infectivity relative to EF-C; Feb2021 run
[15] = derived count rate from zeta measurement, mean
[16] = derived count rate of scattered light
[17] = derived count rate of scattered light, mean, std deviation in separate column
[18] = infectivity class (low / medium / high) of the peptide in the sequence-pattern analysis, Fig. S22-A4; class limits not given
[19] = log10 of infection relative to EF-C, Figure 6C
[20] = n-fold infection vs virus only, relative to that of EF-C, 1.3 µM peptide
[21] = log10 of derived count rate of scattered light, Figure 6C
[22] = logarithm of count rate in kcps
[23] = Fig S8 panels B, D; infectivity enhancement relative to EF-C
[24] = Fig S8 panels B, D; infectivity n-fold relative to virus alone
[25] = Fig S8 panels A, C, asymmetric log errors
[26] = Fig S8 panels B, D, derived count rate of scattered light

| Substance | Absolute Infectivity / RLU /s (Feb2021) [1, 3] | n-fold to virus (Feb2021) [1, 4] | Log10 of Rel to EFC (Feb2021) [1, 5] | Rel-to EFC (Feb-2021) [1, 6] | n-fold to virus (Feb2021) [1, 7] | Log10 of Rel to EFC (Feb2021) [1, 8] | Rel-to EFC (Feb-2021) [1, 9] | infectivity [1, 10] | Log10 Inf. rel. to EF-C [1, 13] | Zeta Count Rate Category ([2]; category 1 / 0, no key given) | Zeta Count Rate / kcps [2, 16] | Zeta Count Rate / kcps [2, 17] | infectivity [1, 18] | further results |
| --- | --- | --- | --- | --- | --- | --- | --- | --- | --- | --- | --- | --- | --- | --- |
| KFKFQFFF [TG12] | 8657 RLU /s | 16.97 | -0.3937 | 0.404 | 16.97 | -0.3937 | 0.404 | medium | -0.3936 | 1 | 3039 kcps | 3039 kcps |  | Rel-to EFC (Feb-2021) [1, 11]: 0.404; n-fold to virus (Feb2021) [1, 12]: 16.97; Log10 of Rel to EFC (Feb2021) [1, 14]: -0.3937; Zeta Count Rate / kcps [2, 15]: 3039 kcps; Zeta Count Rate Category ([2]; key not given): 1 |
| KFKFQFN [BL7] |  |  |  |  | 0.757 | -1.744 | 0.01802 | low | -1.744 |  |  | 50.7 kcps |  |  |
| KFKFQFNMW [BL5 / KB13] |  |  |  |  | 18.76 | -0.3503 | 0.4464 | medium | -0.3503 |  |  | 610.2 kcps |  |  |
| KFKQFFINMWQ [VH14] | 14953.33333 RLU /s | 38.67 | -0.03603 | 0.9204 |  |  |  |  | -0.03603 | 1 | 8996 kcps |  | high |  |
| KFQFNMW |  |  |  |  |  |  |  |  |  |  |  |  |  | Log10 Infection Rel EF-C [1, 19]: -0.7437; Inf. rel. EF-C [1, 20]: 0.18; Count Rate / kcps [2]: 331.6 kcps; Log10 Count Rate [2, 21]: 2.521; Log10 Count Rate [2, 22]: 2.521 |
| KIKIKIKI [TM13] |  |  |  |  | 1.369 | -1.487 | 0.03258 |  | -1.487 |  |  | 155.1 kcps | low |  |
| KIKIKIKIWW [TM21] |  |  |  |  | 15.73 | -0.4266 | 0.3744 | medium | -0.4266 |  |  | 9436 kcps |  |  |
| KIKIKIKIWWWW [TM12] |  |  |  |  | 24.74 | -0.2301 | 0.5888 | medium | -0.2301 |  |  | 12420.6 kcps |  |  |
| KIKIQII [TG1 / (KM4)] | 400 RLU /s | 0.7843 | -1.729 | 0.01867 | 0.7843 | -1.729 | 0.01867 | low | -1.729 | 1 | 1039 kcps | 1039 kcps | low | Rel-to EFC (Feb-2021) [1, 11]: 0.01867; n-fold to virus (Feb2021) [1, 12]: 0.7843; Log10 of Rel to EFC (Feb2021) [1, 14]: -1.729; Zeta Count Rate / kcps [2, 15]: 1039 kcps; Zeta Count Rate Category ([2]; key not given): 1 |
| KIKIQIII [TG7] | 8260 RLU /s | 14.84 | -0.452 | 0.3531 | 14.84 | -0.452 | 0.3531 | medium | -0.4521 | 0 | 94.97 kcps | 94.97 kcps |  | Rel-to EFC (Feb-2021) [1, 11]: 0.3531; n-fold to virus (Feb2021) [1, 12]: 14.84; Log10 of Rel to EFC (Feb2021) [1, 14]: -0.452; Zeta Count Rate / kcps [2, 15]: 94.97 kcps; Zeta Count Rate Category ([2]; key not given): 0 |
| KIKIQIN [JGB3] |  |  |  |  | 11.14 | -0.5766 | 0.2651 | medium | -0.5766 |  |  | 43.43 kcps |  | Rel-to EFC [1, 23]: 0.2651; n-fold to virus [1, 24]: 11.14; Log Count Rate [2, 25]: 1.638; Log Count Rate ([2]; Fig S8 panels B, D): 1.638; Count Rate [2, 26]: 43.43 |
| KIKIQINMWQRGD [VH17-II] |  |  |  |  | 0.5086 | -1.917 | 0.0121 | low | -1.917 |  |  | 2783 kcps | low |  |
| KIKIQINMWWQ [VH11] |  |  |  |  | 134.825 | 0.5063 | 3.209 | high | 0.5063 |  |  | 3893 kcps | high |  |
| KIKIQINMWWWQ [VH12] |  |  |  |  | 115.5 | 0.4391 | 2.749 | high | 0.4391 |  |  | 7596.3 kcps | high |  |
| KIKIQIW [TM69] | 4280 RLU /s | 5.89 | -0.8533 | 0.1402 | 5.89 | -0.8533 | 0.1402 | medium | -0.8533 | 1 | 144.9 kcps | 144.9 kcps |  |  |
| KIKIWIW |  |  |  |  |  |  |  |  |  |  |  |  |  | Log10 Infection Rel EF-C [1, 19]: -0.4875; Inf. rel. EF-C [1, 20]: 0.33; Count Rate / kcps [2]: 607.7 kcps; Log10 Count Rate [2, 21]: 2.784; Log10 Count Rate [2, 22]: 2.784 |
| KIKQIIN [JGA3] |  |  |  |  |  |  |  | low | -1.4 |  |  |  |  | Rel-to EFC [1, 23]: 0.0398; n-fold to virus [1, 24]: 1.672; Rel-to EFC (Feb-2021) [1, 11]: 0.0398; n-fold to virus (Feb2021) [1, 12]: 1.672; Log10 of Rel to EFC (Feb2021) [1, 14]: -1.4; Log Count Rate [2, 25]: 1.806; Log Count Rate ([2]; Fig S8 panels B, D): 1.806; Count Rate [2, 26]: 64.03; Zeta Count Rate / kcps [2, 15]: 64.03 kcps; Zeta Count Rate Category ([2]; key not given): 0 |
| KIWIWIW |  |  |  |  |  |  |  |  |  |  |  |  |  | Log10 Infection Rel EF-C [1, 19]: -0.2793; Inf. rel. EF-C [1, 20]: 0.53; Count Rate / kcps [2]: 6186.6 kcps; Log10 Count Rate [2, 21]: 3.791; Log10 Count Rate [2, 22]: 3.791 |
| KLKLKLQL [TG16] | 2097 RLU /s | 4.111 | -1.009 | 0.09784 |  |  |  | low | -1.009 | 0 | 42.87 kcps |  | low |  |
| KLKLTLT |  |  |  |  |  |  |  |  |  |  |  |  |  | Inf. rel. EF-C ([1]; HIV-1 infection relative to EF-C; Fig 23 plot, panels A and B; mean of 3 values): 0.03847; Inf. rel. EF-C ([1]; HIV-1 infection relative to EF-C; Fig 23 plot, single data point, replicate 1): 0.0783; Inf. rel. EF-C ([1]; HIV-1 infection relative to EF-C; Fig 23 plot, single data point, replicate 2): 0.01816; Inf. rel. EF-C ([1]; HIV-1 infection relative to EF-C; Fig 23 plot, single data point, replicate 3): 0.01895; Log10 Infection Rel EF-C [1, 19]: -1.415; Inf. rel. EF-C [1, 20]: 0.04; Count Rate / kcps [2]: 198.5 kcps; Log10 Count Rate [2, 21]: 2.298; Log10 Count Rate [2, 22]: 2.298 |
| KLVFFAK [reference compound] |  |  |  |  |  |  |  |  |  |  |  |  |  | Log10 Infection Rel EF-C ([1]; log10 of infection relative to EF-C, Figure 7B): -1.15; Inf. rel. EF-C [1, 20]: 0.07; Count Rate / kcps [2]: 14 kcps |
| KVKVKVQV [JG14 / TG14] | 466.7 RLU /s | 0.7254 | -1.763 | 0.01726 |  |  |  | low | -1.763 | 0 | 94.37 kcps |  |  |  |
| KVKVQVV [TG2] | 213.3 RLU /s | 0.3832 | -2.04 | 0.009121 |  |  |  | low | -2.04 | 0 | 27.73 kcps |  | low | Rel-to EFC (Feb-2021) [1, 11]: 0.009121; n-fold to virus (Feb2021) [1, 12]: 0.3832; Log10 of Rel to EFC (Feb2021) [1, 14]: -2.04; Zeta Count Rate / kcps [2, 15]: 27.73 kcps; Zeta Count Rate Category ([2]; key not given): 0 |
